Results taken from the NIST ThermoML archive (doi:10.1016/j.jct.2013.05.051).
Numbers after ± are expanded uncertainties.

Conditions: Liquid, Vibrating tube method

CCCCCCCO [heptan-1-ol]
mass density [kg/m3]
Conditions	298.15 K	313.15 K	333.15 K	353.15 K	373.15 K	393.15 K
100 kPa	818.7 ± 1.5	808 ± 1.5	793.3 ± 1.5	778.1 ± 1.5	761.9 ± 7.6	744.9 ± 7.5
1000 kPa	819.3 ± 1.5	808.6 ± 1.5	794 ± 1.5	778.8 ± 1.5	762.8 ± 1.5	745.8 ± 1.5
5000 kPa	821.9 ± 1.5	811.4 ± 1.5	797.1 ± 1.5	782.3 ± 1.5	766.6 ± 1.5	750.2 ± 1.5
10000 kPa	824.9 ± 1.5	814.7 ± 1.5	800.7 ± 1.5	786.3 ± 1.5	771.1 ± 1.5	755.3 ± 1.5
15000 kPa	828 ± 1.6	817.9 ± 1.6	804.3 ± 1.6	790.2 ± 1.6	775.5 ± 1.6	760.1 ± 1.6
20000 kPa	830.8 ± 1.6	821 ± 1.6	807.7 ± 1.6	793.9 ± 1.6	779.5 ± 1.6	764.6 ± 1.6
25000 kPa	833.5 ± 1.6	823.8 ± 1.6	810.8 ± 1.6	797.3 ± 1.6	783.4 ± 1.6	768.8 ± 1.6
30000 kPa	836.3 ± 1.6	826.8 ± 1.6	813.9 ± 1.6	800.7 ± 1.6	787.1 ± 1.6	772.9 ± 1.6
35000 kPa	838.8 ± 1.6	829.5 ± 1.6	816.9 ± 1.6	804 ± 1.6	790.6 ± 1.6	776.8 ± 1.6
40000 kPa	841.3 ± 1.6	832.1 ± 1.6	819.8 ± 1.6	807.1 ± 1.6	794 ± 1.6	780.4 ± 1.6
45000 kPa	843.8 ± 1.6	834.7 ± 1.6	822.4 ± 1.7	810 ± 1.7	797.2 ± 1.7	783.9 ± 1.7
50000 kPa	846.2 ± 1.7	837.2 ± 1.7	825.2 ± 1.7	813 ± 1.7	800.3 ± 1.7	787.3 ± 1.7
55000 kPa	848.5 ± 1.7	839.7 ± 1.7	827.8 ± 1.7	815.8 ± 1.7	803.4 ± 1.7	790.7 ± 1.7
60000 kPa	850.8 ± 1.7	842.1 ± 1.7	830.3 ± 1.7	818.6 ± 1.7	806.3 ± 1.7	793.8 ± 1.7
65000 kPa	853 ± 1.7	844.4 ± 1.7	832.9 ± 1.7	821.2 ± 1.7	809.2 ± 1.7	796.8 ± 1.7
70000 kPa	855.2 ± 1.7	846.7 ± 1.7	835.3 ± 1.7	823.8 ± 1.7	811.9 ± 1.7	799.8 ± 1.8
80000 kPa	859.4 ± 1.7	851.1 ± 1.7	839.9 ± 1.8	828.7 ± 1.8	817.2 ± 1.8	805.5 ± 1.8
90000 kPa	863.5 ± 1.8	855.3 ± 1.8	844.5 ± 1.8	833.5 ± 1.8	822.3 ± 1.8	810.9 ± 1.8
100000 kPa	867.3 ± 1.8	859.3 ± 1.8	848.7 ± 1.8	837.9 ± 1.8	827 ± 1.8	815.9 ± 1.9
110000 kPa	871.1 ± 1.8	863.2 ± 1.8	852.8 ± 1.8	842.3 ± 1.9	831.6 ± 1.9	820.8 ± 1.9
120000 kPa	874.6 ± 1.8	867 ± 1.8	856.8 ± 1.9	846.4 ± 1.9	835.9 ± 1.9	825.3 ± 1.9
130000 kPa	878.1 ± 1.8	870.6 ± 1.9	860.5 ± 1.9	850.3 ± 1.9	840.2 ± 1.9	829.8 ± 2
140000 kPa	881.5 ± 1.9	874.2 ± 1.9	864.3 ± 1.9	854.3 ± 1.9	844.1 ± 2	834 ± 2

CCCCCCC [heptane]
mass density [kg/m3]
Conditions	298.15 K	313.15 K	333.15 K	353.15 K	373.15 K	393.15 K
100 kPa	679.5 ± 1.4	666.6 ± 1.4	648.9 ± 1.4	631.2 ± 1.4	–	–
1000 kPa	680.4 ± 1.4	667.6 ± 1.4	650 ± 1.4	632.1 ± 1.4	613.3 ± 1.4	593.5 ± 1.4
5000 kPa	684.2 ± 1.4	671.8 ± 1.4	655 ± 1.4	637.8 ± 1.4	620.1 ± 1.4	601.7 ± 1.4
10000 kPa	688.6 ± 1.4	676.7 ± 1.4	660.6 ± 1.4	644.3 ± 1.4	627.7 ± 1.4	610.6 ± 1.4
15000 kPa	692.8 ± 1.4	681.3 ± 1.4	665.8 ± 1.4	650.3 ± 1.4	634.5 ± 1.5	618.4 ± 1.5
20000 kPa	696.7 ± 1.5	685.6 ± 1.5	670.6 ± 1.5	655.7 ± 1.5	640.7 ± 1.5	625.4 ± 1.5
25000 kPa	700.4 ± 1.5	689.5 ± 1.5	675.1 ± 1.5	660.8 ± 1.5	646.3 ± 1.5	631.7 ± 1.5
30000 kPa	704 ± 1.5	693.5 ± 1.5	679.4 ± 1.5	665.5 ± 1.5	651.6 ± 1.5	637.5 ± 1.5
35000 kPa	707.4 ± 1.5	697.1 ± 1.5	683.4 ± 1.5	670 ± 1.5	656.5 ± 1.5	643 ± 1.5
40000 kPa	710.7 ± 1.5	700.5 ± 1.5	687.3 ± 1.5	674.1 ± 1.5	661.1 ± 1.5	648 ± 1.6
45000 kPa	713.8 ± 1.5	703.9 ± 1.5	690.9 ± 1.5	678.1 ± 1.6	665.5 ± 1.6	652.8 ± 1.6
50000 kPa	716.8 ± 1.5	707.2 ± 1.6	694.4 ± 1.6	682 ± 1.6	669.6 ± 1.6	657.2 ± 1.6
55000 kPa	719.7 ± 1.6	710.3 ± 1.6	697.7 ± 1.6	685.5 ± 1.6	673.5 ± 1.6	661.5 ± 1.6
60000 kPa	722.5 ± 1.6	713.3 ± 1.6	701 ± 1.6	689.1 ± 1.6	677.3 ± 1.6	665.5 ± 1.7
65000 kPa	725.2 ± 1.6	716.1 ± 1.6	704.1 ± 1.6	692.4 ± 1.6	680.8 ± 1.7	669.3 ± 1.7
70000 kPa	727.9 ± 1.6	718.9 ± 1.6	707.1 ± 1.7	695.7 ± 1.7	684.3 ± 1.7	673.1 ± 1.7
80000 kPa	732.9 ± 1.7	724.2 ± 1.7	712.8 ± 1.7	701.7 ± 1.7	690.8 ± 1.7	680.1 ± 1.8
90000 kPa	737.7 ± 1.7	729.3 ± 1.7	718.2 ± 1.8	707.5 ± 1.8	696.9 ± 1.8	686.5 ± 1.8
100000 kPa	742.3 ± 1.8	734 ± 1.8	723.2 ± 1.8	712.8 ± 1.8	702.6 ± 1.9	692.5 ± 1.9
110000 kPa	746.6 ± 1.8	738.6 ± 1.8	728.1 ± 1.8	717.9 ± 1.9	708 ± 1.9	698.2 ± 1.9
120000 kPa	750.7 ± 1.8	742.8 ± 1.9	732.6 ± 1.9	722.7 ± 1.9	713 ± 2	703.4 ± 2
130000 kPa	754.6 ± 1.9	747 ± 1.9	737 ± 1.9	727.3 ± 2	717.9 ± 2	708.5 ± 2
140000 kPa	758.4 ± 1.9	751.1 ± 2	741.1 ± 2	731.6 ± 2	722.3 ± 2.1	713.4 ± 2.1
